Experimental data from PubChem BioAssay (NCI).
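Where inhibition never reached the appropriate level, the endpoint shown equals the highest concentration tested. Otherwise, values were interpolated linearly from a five-concentration, 48-hour dose response in 96-well plates. TGI is the concentration that stops growth completely.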

Assays:
Experiment in all cases: NCI-60 cell line screen, 48 h
SR leukemia = test system: SR leukemia
NCI-H460 lung = test system: NCI-H460 lung
M14 melanoma = test system: M14 melanoma
A498 renal = test system: A498 renal
A549 NSCLC = test system: A549 NSCLC
OVCAR-8 ovarian = test system: OVCAR-8 ovarian
SW-620 colon = test system: SW-620 colon
MALME-3M melanoma = test system: MALME-3M melanoma
KM20L2 colon = test system: KM20L2 colon
NCI-H23 lung = test system: NCI-H23 lung
UO-31 renal = test system: UO-31 renal
UACC-257 melanoma = test system: UACC-257 melanoma
SF-295 CNS = test system: SF-295 CNS
SF-268 CNS = test system: SF-268 CNS
IGROV1 ovarian = test system: IGROV1 ovarian
XF 498 CNS = test system: XF 498 CNS
DMS 273 small cell lung = test system: DMS 273 small cell lung
EKVX NSCLC = test system: EKVX NSCLC
LOX IMVI melanoma = test system: LOX IMVI melanoma
SK-MEL-28 melanoma = test system: SK-MEL-28 melanoma
HOP-62 NSCLC = test system: HOP-62 NSCLC
LXFL 529 NSCLC = test system: LXFL 529 NSCLC
RXF 393 renal = test system: RXF 393 renal
HOP-92 NSCLC = test system: HOP-92 NSCLC
DMS 114 small cell lung = test system: DMS 114 small cell lung
HCC-2998 colon = test system: HCC-2998 colon
786-0 renal = test system: 786-0 renal
SK-MEL-2 melanoma = test system: SK-MEL-2 melanoma
ACHN renal = test system: ACHN renal
NCI-H522 lung = test system: NCI-H522 lung
HT29 colon = test system: HT29 colon
SNB-78 CNS = test system: SNB-78 CNS
TK-10 renal = test system: TK-10 renal
HCT-15 colon = test system: HCT-15 colon
SN12C renal = test system: SN12C renal
MOLT-4 leukemia = test system: MOLT-4 leukemia
HOP-18 NSCLC = test system: HOP-18 NSCLC
DLD-1 colon = test system: DLD-1 colon
M19-MEL melanoma = test system: M19-MEL melanoma
KM12 colon = test system: KM12 colon
CCRF-CEM leukemia = test system: CCRF-CEM leukemia
HL-60(TB) leukemia = test system: HL-60(TB) leukemia
UACC-62 melanoma = test system: UACC-62 melanoma
U251 CNS = test system: U251 CNS
HCT-116 colon = test system: HCT-116 colon
COLO 205 colon = test system: COLO 205 colon
OVCAR-3 ovarian = test system: OVCAR-3 ovarian
SK-OV-3 ovarian = test system: SK-OV-3 ovarian
OVCAR-4 ovarian = test system: OVCAR-4 ovarian
SF-539 CNS = test system: SF-539 CNS
K-562 leukemia = test system: K-562 leukemia
RPMI-8226 leukemia = test system: RPMI-8226 leukemia
SNB-19 CNS = test system: SNB-19 CNS
SNB-75 CNS = test system: SNB-75 CNS
NCI-H226 lung = test system: NCI-H226 lung
CAKI-1 renal = test system: CAKI-1 renal
SK-MEL-5 melanoma = test system: SK-MEL-5 melanoma
OVCAR-5 ovarian = test system: OVCAR-5 ovarian

Measured: TGI

CCN(CC)C(=O)c1c(Cl)cc(N(CC)CC)oc1=O
not listed: CAKI-1 renal | SK-MEL-5 melanoma | OVCAR-5 ovarian
> 100 µM: all other assays above

Cc1ccc(C2C(Cl)C(=O)N2n2cnc3ccccc3c2=O)cc1 (stereo not given)
90.4 µM: UO-31 renal
not listed: A498 renal | HOP-92 NSCLC | SF-539 CNS
> 100 µM: all other assays above
